Experimental data published in US10851073B2, “Protein tyrosine phosphatase inhibitors and methods of use thereof” (Calico Life Sciences LLC, priority 2019, dated 2020).
Like-named read-outs stand apart in the source and are kept apart here.

What was measured:
[1] = target: T1, His tagged full-length PTPN1 protein (Homo sapiens, UniProt P18031); experiment: Mobility shift assay (MSA) used to determine potency of PTPN1 inhibitors; type: biochemical; conditions: enzyme 0.5 nM, substrate 2 μM
T1 construct: made in house
T1 sequence (P18031 with tags, fused parts or gaps): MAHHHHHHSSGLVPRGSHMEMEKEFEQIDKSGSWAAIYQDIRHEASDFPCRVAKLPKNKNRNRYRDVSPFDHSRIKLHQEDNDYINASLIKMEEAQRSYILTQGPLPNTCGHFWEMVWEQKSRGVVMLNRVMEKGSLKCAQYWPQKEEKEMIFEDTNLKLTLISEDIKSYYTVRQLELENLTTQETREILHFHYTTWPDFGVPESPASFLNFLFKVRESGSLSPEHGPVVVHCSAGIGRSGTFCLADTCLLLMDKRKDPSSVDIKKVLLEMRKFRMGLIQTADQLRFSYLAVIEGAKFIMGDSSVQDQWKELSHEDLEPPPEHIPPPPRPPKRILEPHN
Outline: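 Full-length His-tagged human PTPN1 (0.5 nM) was preincubated 10 min at room temperature with compound (12-point, 1:3 dilution) in HEPES pH 7.5 buffer with EGTA, EDTA, Tween 20 and DTT. A 2 μM fluorescent phospho-insulin receptor peptide was then added for 10 min before quench. Mobility-shift % conversion gave % inhibition and IC50.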

[2] = test system: B16F10 mouse melanoma cells; experiment: B16F10 IFNγ-induced cellular growth inhibition assay; type: cell-based; conditions: B16-F10, with 0.5 ng/mL IFNγ
Outline: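 B16F10 cells grown in DMEM+10% FBS, with or without 0.5 ng/mL final mouse IFNγ, and dosed in triplicate at 100 μM to 0.001 μM final (0.1% DMSO). Confluence imaged every 6 h for 5 days; percent growth inhibition versus DMSO/with-IFNγ control taken once DMSO/no-IFNγ wells exceeded 95% confluence, giving IC50.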

[3] = read-out: B16F10 Growth Inhibition IC50

| Structure (SMILES) | IC50 [1] | IC50 ([2]; read-out: B16F10 GI IC50) | IC50 [2, 3] |
| --- | --- | --- | --- |
| CC(C)CCN[C@@H]1CCc2cc(O)c(N3CC(=O)NS3(=O)=O)c(F)c2C1 (single isomer, unassigned) [Compound 118] | 1 to 10 nM | < 1000 nM | 110 nM |
| O=C1CN(c2c(O)cc3c(c2F)C[C@H](NCCC2CC2)CC3)S(=O)(=O)N1 (single isomer, unassigned) [Compound 133] | 1 to 10 nM | < 1000 nM | 220 nM |
| CC(C)(CCN[C@@H]1CCc2cc(O)c(N3CC(=O)NS3(=O)=O)c(F)c2C1)C(F)(F)F (single isomer, unassigned) [Compound 177] | 1 to 10 nM | < 1000 nM | 140 nM |

Continued, values first:

| IC50 [1] | IC50 ([2]; read-out: B16F10 GI IC50) | IC50 [2, 3] | Structure (SMILES) |
| --- | --- | --- | --- |
| < 1 nM | < 1000 nM | < 50 nM | O=C1CN(c2c(O)cc3c(c2F)C[C@H](NCCCC(F)F)CC3)S(=O)(=O)N1 (single isomer, unassigned) [Compound 199] |
| 10 to 100 nM | 1000 to 10000 nM | 1500 nM | O=C1CN(c2c(O)cc3c(c2F)C[C@@H](NCCC(F)F)CC3)S(=O)(=O)N1 (single isomer, unassigned) [Compound 259] |
| 1 to 10 nM | < 1000 nM | 180 nM | O=C1CN(c2c(O)cc3c(c2F)C[C@H](NCCC(F)F)CC3)S(=O)(=O)N1 (single isomer, unassigned) [Compound 260] |
